# ChEMBL document CHEMBL1201862, “PubChem BioAssay data set” (2004)
# The source made the active and inactive calls.
# How the values were obtained:
# [1] = biological target: Beta-2 adrenergic receptor (Homo sapiens, UniProt P07550); assay: ADRB2 activation measured by internalization – cell-based, FAP fluorogen, flow cytometry, cherry pick 1, dose response (AID 588763); type: functional
# [2] = system: Escherichia coli; assay: microbe, parasite or virus in culture
# [3] = system: HEK293; assay: cells; type: functional, cell-based; conditions: Homo sapiens
# [4] = NIH-3T3 fibroblast cytotoxicity, dose response, cytotoxicity control, cell-based, fluorescence, Alamar Blue, secondary assay (AID 2327); type: functional;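 also: NIH-3T3 mouse fibroblasts cultured with fluconazole at 8 µg/mL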
# [5] = biological target: T1, Nuclear receptor subfamily 0 group B member 1 (Homo sapiens, UniProt P51843); assay: Luminescence-based cell-based high throughput dose response assay for inhibitors of the orphan nuclear receptor subfamily 0, group B, member 1 (DAX1; NR0B1). [Related pubchem assays (depositor defined):AID504766, AID504790]; type: functional
# T1 sequence (P51843 whole entry): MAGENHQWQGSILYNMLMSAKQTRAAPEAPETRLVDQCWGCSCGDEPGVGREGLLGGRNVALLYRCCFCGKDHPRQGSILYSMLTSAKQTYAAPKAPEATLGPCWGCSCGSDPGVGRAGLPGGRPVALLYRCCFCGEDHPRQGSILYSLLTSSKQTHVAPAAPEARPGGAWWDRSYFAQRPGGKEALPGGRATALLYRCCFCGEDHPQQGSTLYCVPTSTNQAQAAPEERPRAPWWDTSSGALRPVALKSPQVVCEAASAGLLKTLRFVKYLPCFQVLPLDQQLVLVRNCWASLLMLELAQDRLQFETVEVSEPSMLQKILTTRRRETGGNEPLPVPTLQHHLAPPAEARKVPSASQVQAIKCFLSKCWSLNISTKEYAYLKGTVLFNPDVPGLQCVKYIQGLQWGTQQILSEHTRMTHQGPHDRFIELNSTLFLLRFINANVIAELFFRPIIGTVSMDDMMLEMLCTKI
# [6] = system: H9c2; assay: cells; type: functional, cell-based; conditions: Rattus norvegicus, H9c2, Myocardium;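 also: confirmatory concentration-response retest of ultra-high-throughput screening hits for modulation of myocardial damage; cell death induced by hydrogen peroxide oxidative stress; compound pretreatment for 60 min then peroxide exposure for 2 h; potency is for protecting the cells against peroxide damage rather than for killing them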
# [7] = system: HeLa; assay: ATP-based viability loss in HeLa cells – cell-based, CellTiter-Glo luminescence, cherry-pick samples, cytotoxicity control for MITF activator project, dose response (AID 540259); type: functional; conditions: Homo sapiens
# [8] = system: Escherichia coli; assay: microbe, parasite or virus in culture; remark: listed apart in the source
# [9] = biological target: Beta Lactamase (Pseudomonas aeruginosa, UniProt Q932Y6); assay: BLA reporter interference, concentration series – BLA reporter cells, FRET fluorescence, artefact control for TLR9-MyD88 binding inhibitor project, dose response (AID 588341); type: cell-based;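 also: cell based assay in CHO-K1 cells stably expressing beta-lactamase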
# [10] = system: CHO; assay: CHO cell viability loss, potency – luminescence, cytotoxicity control for TLR9-MyD88 binding inhibitor project, dose response (AID 588339); type: functional, cell-based, hamster; conditions: Cricetulus griseus;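 also: CHO cells stably coexpressing TLR9 and MyD88 fusions from primary screen; compound exposure lasted 48 hours before viability readout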
# [11] = biological target: Dual specificity tyrosine-phosphorylation-regulated kinase 1A (Rattus norvegicus, UniProt Q63470); type: biochemical, Homo sapiens
# [12] = biological target: Glucose-6-phosphate 1-dehydrogenase (Homo sapiens, UniProt P11413); assay: inhibition of Homo sapiens G6PD, dose series – biochemical, fluorescence, selectivity assay for P. falciparum G6PD inhibitor project, dose response (AID 504792); type: functional
# [13] = biological target: T2, Rac GTPase-activating protein 1 (Homo sapiens, UniProt Q9H0H5); assay: blockers of MgcRacGAP-driven Rac1 GTP hydrolysis – biochemical, ADP Hunter fluorescence, primary and confirmatory, confirmation (AID 624330); type: functional
# T2 sequence (Q9H0H5 whole entry): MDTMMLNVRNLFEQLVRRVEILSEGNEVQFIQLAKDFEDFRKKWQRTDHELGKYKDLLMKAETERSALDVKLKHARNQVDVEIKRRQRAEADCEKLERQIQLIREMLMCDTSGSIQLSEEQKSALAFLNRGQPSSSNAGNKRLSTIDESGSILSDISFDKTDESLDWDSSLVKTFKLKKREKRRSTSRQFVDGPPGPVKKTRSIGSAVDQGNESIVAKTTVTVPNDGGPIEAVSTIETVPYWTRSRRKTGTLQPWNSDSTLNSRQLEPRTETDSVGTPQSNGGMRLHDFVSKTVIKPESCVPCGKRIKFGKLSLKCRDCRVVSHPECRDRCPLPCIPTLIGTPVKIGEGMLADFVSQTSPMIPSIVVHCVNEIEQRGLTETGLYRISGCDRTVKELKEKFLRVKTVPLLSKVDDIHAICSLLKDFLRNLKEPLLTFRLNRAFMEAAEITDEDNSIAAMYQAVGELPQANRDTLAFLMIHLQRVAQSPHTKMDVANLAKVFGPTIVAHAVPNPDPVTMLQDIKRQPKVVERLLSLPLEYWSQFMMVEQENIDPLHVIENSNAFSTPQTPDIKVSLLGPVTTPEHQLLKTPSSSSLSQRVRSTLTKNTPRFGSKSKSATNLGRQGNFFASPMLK
# [14] = biological target: Keap1/Nrf2 (Homo sapiens, UniProt Q14145); assay: disruptors of Keap1 binding to Nrf2 peptide – biochemical, fluorescence polarization, cherry-picked samples, dose response (AID 588683)
# [15] = biological target: T3, Corticotropin-releasing factor receptor 2/Corticotropin-releasing factor-binding protein (Homo sapiens, UniProt P24387+Q13324); assay: activators of CRF receptor 2 with binding protein – uHTS hits, confirmation (AID 602473); type: functional; conditions: read-out: EC50_Mean
# T3 sequence (Q13324 whole entry): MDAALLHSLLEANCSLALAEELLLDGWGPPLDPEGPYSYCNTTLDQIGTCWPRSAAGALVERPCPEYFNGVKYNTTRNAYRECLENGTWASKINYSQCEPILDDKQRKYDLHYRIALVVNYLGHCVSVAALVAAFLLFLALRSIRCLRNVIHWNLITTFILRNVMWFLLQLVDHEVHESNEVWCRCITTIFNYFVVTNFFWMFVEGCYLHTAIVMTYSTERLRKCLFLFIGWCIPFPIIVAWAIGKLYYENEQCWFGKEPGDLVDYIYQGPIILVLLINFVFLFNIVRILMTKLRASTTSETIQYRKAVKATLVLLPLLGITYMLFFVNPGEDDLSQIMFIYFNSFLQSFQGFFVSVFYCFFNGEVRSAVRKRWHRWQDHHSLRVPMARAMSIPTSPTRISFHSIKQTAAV
# T3 sequence (P24387 whole entry): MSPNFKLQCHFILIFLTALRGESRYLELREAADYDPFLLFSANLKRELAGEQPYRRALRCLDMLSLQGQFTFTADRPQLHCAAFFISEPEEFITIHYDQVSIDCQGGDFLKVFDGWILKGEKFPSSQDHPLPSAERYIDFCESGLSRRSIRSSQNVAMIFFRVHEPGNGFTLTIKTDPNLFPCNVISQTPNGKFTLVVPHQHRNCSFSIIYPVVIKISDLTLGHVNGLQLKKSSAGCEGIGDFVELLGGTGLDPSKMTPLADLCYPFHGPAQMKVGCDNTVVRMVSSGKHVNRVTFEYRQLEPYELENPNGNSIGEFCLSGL
# [16] = biological target: T4, Polyadenylate-binding protein 1 (Homo sapiens, UniProt P11940); assay: MLLE domain peptide-binding blockers, IC50 – biochemical, fluorescence polarization, FITC-PAM2 peptide, dose response (AID 602259); type: functional; conditions: read-out: IC50_Mean
# [17] = biological target: T4, Polyadenylate-binding protein 1; assay: MLLE binding blockers, Cy5 peptide tracer – biochemical, fluorescence polarization, Cy5-PAM2 peptide, secondary, miRNA deadenylation inhibitor project, dose response (AID 602260); type: functional; conditions: read-out: IC50_Mean
# [18] = biological target: Large T antigen (Simian virus 40, UniProt P03070); type: functional, Betapolyomavirus macacae;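 also: Confirmatory-stage PubChem screen for compounds that inhibit SV40 T antigen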
# [19] = biological target: T5, Ubiquitin-conjugating enzyme E2 N (Homo sapiens, UniProt P61088); type: functional;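 also: Dose-response confirmation in a TR-FRET assay detecting UBC13-driven polyubiquitin chain formation, inhibition measured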
# T5 sequence (P61088 whole entry): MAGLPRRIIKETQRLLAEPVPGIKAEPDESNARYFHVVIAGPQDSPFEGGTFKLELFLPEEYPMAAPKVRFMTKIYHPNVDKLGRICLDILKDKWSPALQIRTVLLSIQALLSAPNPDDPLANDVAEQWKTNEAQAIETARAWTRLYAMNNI
# [20] = biological target: Genome polyprotein (dengue virus type 2, UniProt P29990); assay: flavivirus cap methylation enzyme inhibition – biochemical, confirmation dose response, primary screen (AID 588689); type: functional
# [21] = Luminescence Cell-Based Dose Response HTS to Identify Activators of Luciferase Translation or Activity in H4 […] Cells. [Related pubchem assays: 1829 (Project Summary), 1814 (Primary HTS)]; type: functional
# [22] = system: INS1; assay: INS-1E survival protection against cytokine death – cell-based, luminescence, retest, dose response (AID 449756); type: functional; conditions: Rattus norvegicus;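 also: cell death triggered by IL-1 beta plus TNF-alpha plus IFN-gamma mixture; protective hits raise ATP signal compared with cytokine alone wells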
# [23] = Luminescence Cell-Based Dose Confirmation HTS to Identify Activators of 5'UTR Stem-Loop Driven Alpha-Synuclein mRNA Translation in H4 Neuroglioblastoma Cells. [Related pubchem assays: 1829 (Project Summary), 1814 (Primary HTS)]; type: functional
# [24] = system: Vero; assay: viability of Vero cells under compound – cytotoxicity control for flavivirus capping enzyme inhibitors (AID 588742); type: functional; conditions: Chlorocebus sabaeus
# [25] = system: H4; assay: Luminescence Cell-Based Dose Response HTS to Identify Activators of 5'UTR Stem-Loop Driven Prion Protein mRNA Translation in H4 Neuroglioblastoma Cells. [Related pubchem assays: 1829 (Project Summary), 1814 (Primary HTS)]; type: functional; conditions: Homo sapiens
# Sequence of Beta Lactamase (Q932Y6 whole entry, the tested form may be a part): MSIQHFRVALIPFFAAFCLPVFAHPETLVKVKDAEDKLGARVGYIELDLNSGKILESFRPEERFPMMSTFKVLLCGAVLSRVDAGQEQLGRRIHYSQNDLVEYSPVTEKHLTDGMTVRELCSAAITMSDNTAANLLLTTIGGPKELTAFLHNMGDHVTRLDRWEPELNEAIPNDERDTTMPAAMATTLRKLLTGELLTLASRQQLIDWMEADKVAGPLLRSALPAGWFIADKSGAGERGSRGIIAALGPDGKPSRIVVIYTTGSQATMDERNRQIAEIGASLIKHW
# Sequence of Beta-2 adrenergic receptor (P07550 whole entry): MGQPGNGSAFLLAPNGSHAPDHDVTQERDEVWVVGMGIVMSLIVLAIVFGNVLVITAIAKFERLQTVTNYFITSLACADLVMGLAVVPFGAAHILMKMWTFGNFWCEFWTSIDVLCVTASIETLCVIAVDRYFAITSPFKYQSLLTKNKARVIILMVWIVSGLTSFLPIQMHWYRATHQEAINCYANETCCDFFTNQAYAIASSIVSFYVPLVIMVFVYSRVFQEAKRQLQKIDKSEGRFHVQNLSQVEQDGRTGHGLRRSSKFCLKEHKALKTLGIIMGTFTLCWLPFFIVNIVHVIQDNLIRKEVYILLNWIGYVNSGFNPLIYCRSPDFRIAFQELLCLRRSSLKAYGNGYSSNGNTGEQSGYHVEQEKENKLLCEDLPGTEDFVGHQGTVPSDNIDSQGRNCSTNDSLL
# Sequence of Glucose-6-phosphate 1-dehydrogenase (P11413 whole entry): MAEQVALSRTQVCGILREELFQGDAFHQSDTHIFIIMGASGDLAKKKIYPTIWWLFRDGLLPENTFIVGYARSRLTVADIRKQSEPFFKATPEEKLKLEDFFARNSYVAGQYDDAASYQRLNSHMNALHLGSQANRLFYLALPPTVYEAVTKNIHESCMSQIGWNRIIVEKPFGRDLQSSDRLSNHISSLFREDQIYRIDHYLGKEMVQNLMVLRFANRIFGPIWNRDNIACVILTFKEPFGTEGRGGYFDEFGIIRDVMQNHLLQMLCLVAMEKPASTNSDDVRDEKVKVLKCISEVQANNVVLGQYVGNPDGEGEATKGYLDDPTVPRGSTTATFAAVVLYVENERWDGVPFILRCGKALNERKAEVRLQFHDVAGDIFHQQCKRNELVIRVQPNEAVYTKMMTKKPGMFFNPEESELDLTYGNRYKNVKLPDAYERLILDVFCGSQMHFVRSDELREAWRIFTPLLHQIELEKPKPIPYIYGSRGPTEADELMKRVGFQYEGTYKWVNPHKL
# T4 sequence (P11940 whole entry, the tested form may be a part): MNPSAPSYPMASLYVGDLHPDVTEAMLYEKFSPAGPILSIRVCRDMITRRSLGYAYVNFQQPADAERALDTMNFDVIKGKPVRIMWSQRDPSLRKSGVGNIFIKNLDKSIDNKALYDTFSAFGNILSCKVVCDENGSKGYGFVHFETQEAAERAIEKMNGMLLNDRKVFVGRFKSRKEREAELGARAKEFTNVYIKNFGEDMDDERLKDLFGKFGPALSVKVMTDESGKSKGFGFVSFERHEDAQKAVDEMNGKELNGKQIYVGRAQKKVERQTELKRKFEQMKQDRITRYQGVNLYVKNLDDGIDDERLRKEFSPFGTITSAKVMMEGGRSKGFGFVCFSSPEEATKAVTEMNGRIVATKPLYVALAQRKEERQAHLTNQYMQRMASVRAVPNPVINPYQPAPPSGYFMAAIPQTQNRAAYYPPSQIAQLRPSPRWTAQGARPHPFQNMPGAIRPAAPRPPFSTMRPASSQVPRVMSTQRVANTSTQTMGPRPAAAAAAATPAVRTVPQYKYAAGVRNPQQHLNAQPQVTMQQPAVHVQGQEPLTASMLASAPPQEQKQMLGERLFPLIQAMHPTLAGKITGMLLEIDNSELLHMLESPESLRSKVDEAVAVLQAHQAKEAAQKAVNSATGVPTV
# Sequence of Large T antigen (P03070 whole entry): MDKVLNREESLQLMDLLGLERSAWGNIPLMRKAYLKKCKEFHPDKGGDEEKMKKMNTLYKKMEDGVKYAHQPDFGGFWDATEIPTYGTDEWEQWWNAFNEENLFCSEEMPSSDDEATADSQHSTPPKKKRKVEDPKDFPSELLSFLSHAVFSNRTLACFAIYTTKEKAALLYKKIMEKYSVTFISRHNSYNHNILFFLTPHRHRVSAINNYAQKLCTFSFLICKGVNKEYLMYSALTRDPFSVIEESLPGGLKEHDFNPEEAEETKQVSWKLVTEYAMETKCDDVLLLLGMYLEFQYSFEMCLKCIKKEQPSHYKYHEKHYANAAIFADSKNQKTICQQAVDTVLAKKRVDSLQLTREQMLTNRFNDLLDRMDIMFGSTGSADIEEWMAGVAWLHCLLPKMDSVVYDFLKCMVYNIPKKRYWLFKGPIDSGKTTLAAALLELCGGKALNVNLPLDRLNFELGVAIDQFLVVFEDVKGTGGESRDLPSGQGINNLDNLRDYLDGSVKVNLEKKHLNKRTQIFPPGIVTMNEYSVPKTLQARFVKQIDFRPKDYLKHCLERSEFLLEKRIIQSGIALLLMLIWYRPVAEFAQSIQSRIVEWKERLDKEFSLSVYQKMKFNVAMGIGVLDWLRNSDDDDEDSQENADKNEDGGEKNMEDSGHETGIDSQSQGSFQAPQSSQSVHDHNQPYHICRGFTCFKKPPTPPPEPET
# Sequence of Keap1/Nrf2 (Q16236 whole entry): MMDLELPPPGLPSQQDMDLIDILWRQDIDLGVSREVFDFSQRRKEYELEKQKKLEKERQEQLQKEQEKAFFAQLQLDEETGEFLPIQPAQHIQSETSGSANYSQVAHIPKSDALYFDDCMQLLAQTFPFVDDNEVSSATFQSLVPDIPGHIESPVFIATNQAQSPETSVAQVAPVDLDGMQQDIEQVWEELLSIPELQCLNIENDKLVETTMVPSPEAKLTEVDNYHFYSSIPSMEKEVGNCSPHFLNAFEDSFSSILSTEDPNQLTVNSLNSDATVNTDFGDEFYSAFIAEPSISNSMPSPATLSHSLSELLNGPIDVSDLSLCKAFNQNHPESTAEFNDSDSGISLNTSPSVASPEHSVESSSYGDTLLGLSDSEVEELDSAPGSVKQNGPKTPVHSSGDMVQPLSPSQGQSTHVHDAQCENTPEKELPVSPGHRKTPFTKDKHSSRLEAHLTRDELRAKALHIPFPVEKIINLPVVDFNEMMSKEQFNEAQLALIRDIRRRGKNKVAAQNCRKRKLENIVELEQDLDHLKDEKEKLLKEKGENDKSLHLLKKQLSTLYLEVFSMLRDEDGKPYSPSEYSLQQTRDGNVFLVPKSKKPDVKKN
# Sequence of Keap1/Nrf2 (Q14145 whole entry): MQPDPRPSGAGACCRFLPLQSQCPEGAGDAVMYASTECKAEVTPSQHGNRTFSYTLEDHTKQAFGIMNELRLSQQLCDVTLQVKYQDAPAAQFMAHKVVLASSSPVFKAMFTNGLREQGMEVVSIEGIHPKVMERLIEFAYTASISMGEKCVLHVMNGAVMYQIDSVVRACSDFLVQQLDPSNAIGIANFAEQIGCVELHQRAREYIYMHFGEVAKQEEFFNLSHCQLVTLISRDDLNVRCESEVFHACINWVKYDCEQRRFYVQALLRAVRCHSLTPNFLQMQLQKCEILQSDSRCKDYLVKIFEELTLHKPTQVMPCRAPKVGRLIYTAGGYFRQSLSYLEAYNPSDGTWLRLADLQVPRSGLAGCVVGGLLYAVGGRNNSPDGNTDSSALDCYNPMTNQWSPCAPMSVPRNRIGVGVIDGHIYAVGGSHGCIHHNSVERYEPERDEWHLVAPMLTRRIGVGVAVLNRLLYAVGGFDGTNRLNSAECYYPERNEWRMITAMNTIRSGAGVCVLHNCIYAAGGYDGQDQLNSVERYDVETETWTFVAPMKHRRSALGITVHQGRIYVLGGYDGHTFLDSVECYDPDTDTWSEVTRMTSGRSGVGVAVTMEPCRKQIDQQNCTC
# Sequence of Genome polyprotein (P29990 2492-3391 limits assumed): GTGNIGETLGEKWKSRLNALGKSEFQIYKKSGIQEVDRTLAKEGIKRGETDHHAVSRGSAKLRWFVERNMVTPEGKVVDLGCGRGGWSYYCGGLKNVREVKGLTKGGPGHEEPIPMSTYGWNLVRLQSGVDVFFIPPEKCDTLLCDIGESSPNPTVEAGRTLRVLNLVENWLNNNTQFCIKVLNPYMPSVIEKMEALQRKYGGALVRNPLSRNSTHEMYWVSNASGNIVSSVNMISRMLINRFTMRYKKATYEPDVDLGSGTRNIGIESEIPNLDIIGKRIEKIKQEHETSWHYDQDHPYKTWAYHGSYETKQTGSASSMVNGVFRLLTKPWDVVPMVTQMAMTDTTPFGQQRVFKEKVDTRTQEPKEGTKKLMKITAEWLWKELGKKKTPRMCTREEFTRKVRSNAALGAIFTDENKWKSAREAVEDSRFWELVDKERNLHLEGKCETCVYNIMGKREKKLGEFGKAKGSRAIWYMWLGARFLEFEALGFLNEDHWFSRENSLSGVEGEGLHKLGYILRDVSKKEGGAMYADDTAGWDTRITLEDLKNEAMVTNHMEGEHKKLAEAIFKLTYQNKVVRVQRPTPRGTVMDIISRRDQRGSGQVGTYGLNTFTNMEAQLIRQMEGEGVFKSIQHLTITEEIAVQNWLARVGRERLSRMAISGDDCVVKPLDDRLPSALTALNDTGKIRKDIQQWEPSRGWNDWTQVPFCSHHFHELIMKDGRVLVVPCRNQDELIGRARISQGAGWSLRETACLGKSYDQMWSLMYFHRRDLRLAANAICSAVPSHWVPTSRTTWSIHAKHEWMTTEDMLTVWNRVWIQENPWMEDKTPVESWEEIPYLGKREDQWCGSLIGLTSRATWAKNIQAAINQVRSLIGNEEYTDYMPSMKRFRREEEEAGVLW
structure (smiles),measurement,setting,value
NC(=O)CC(NC(=O)c1ccc(Br)cc1)c1ccc(N2CCN(c3ccccn3)CC2)c([N+](=O)[O-])c1 (centres undefined),EC50,[1],0.213 µM (active)
CCCCCN(C(=O)CCC(=O)OCC(=O)N(C)Cc1ccc(C)cc1)c1c(N)n(CCCC)c(=O)[nH]c1=O,AC50,[2],> 380 µM (inactive)
c1cnc(SCCOc2ccc3c(c2)CCC3)nc1,IC50,[3],> 67.6 µM (inactive)
same,EC50,[4],> 160 µM (inactive)
same,IC50,[5],> 67.6 µM (inactive)
CC(=O)Nc1ccc(S(=O)(=O)N(Cc2cccnc2)Cc2cc3ccccc3nc2O)cc1,EC50,[1],0.801 µM (active)
same,IC50,[6],> 79 µM (inactive)
CN(C(=O)c1cc2sccc2n1C)C1CCCCC1,AC50,[7],218 µM (active)
COc1ccccc1Nc1nc(C)cs1,AC50,[2],60.7 µM (active)
same,AC50,[8],26.8 µM (active)
Brc1cc(Br)c2nc(-c3ccc(N4CCOCC4)cc3)ccc2c1,IC50,[9],2.37 µM (active)
same,IC50,[10],> 49.8 µM (inactive)
COC(=O)/C(=C1\Oc2ccc(C(C)(C)C)cc2S1)C(F)(F)F,AC50,[7],57.7 µM (active)
NC(=O)CC(NC(=O)c1cccc(Br)c1)c1ccc(N2CCN(c3ccccn3)CC2)c([N+](=O)[O-])c1 (centres undefined),EC50,[1],0.225 µM (active)
same,AC50,[11],66.8 µM (active)
Oc1ccc(Nc2nc(-c3ccccc3)nc3ccccc23)cc1,AC50,[11],0.461 µM (active)
Nc1ccc2c3c(cccc13)-c1ccccc1-2,IC50,[12],> 80 µM (inactive)
same,IC50,[13],39.2 µM (active)
same,AC50,[14],2.01 µM (active)
same,EC50,[15],4.79 µM (active)
C/C(Cl)=C/CSc1nn2c(=O)c3ccccc3nc2s1,AC50,[7],36.3 µM (active)
O=C1NC(=O)C2C1C(c1ccc([N+](=O)[O-])cc1)=NN2Cc1ccccc1 (centres undefined),IC50,[9],10.3 µM (inactive)
same,IC50,[10],> 49.8 µM (inactive)
Oc1cccc(NC(=S)N=Nc2c(O)[nH]c3ccccc23)c1,AC50,[11],12.4 µM (active)
same,IC50,[16],> 66 µM (inactive)
same,IC50,[17],> 66 µM (inactive)
CC(=O)c1csc(Nc2ccccc2Cl)n1,IC50,[3],> 67.6 µM (inactive)
same,IC50,[5],> 67.6 µM (inactive)
CCN(CC)c1ccc(-c2nc3cnccn3c2NC2CCCC2)cc1,IC50,[9],5.29 µM (active)
same,IC50,[18],21.9 µM (active)
same,IC50,[10],> 16.6 µM (inactive)
COC(=O)c1c(-c2ccc(S(C)(=O)=O)cc2)sc2ccc(OC)cc12,IC50,[19],> 20 µM (inactive)
same,AC50,[7],28 µM (active)
CCc1nc(NC(C)(C)C)c2cnn(-c3ccccc3)c2n1,AC50,[7],134 µM (active)
O=[N+]([O-])c1ccc(-[n+]2ccc3ccccc3c2)c([N+](=O)[O-])c1,IC50,[20],> 100 µM (active)
same,EC50,[21],11.4 µM (active)
same,AC50,[22],3.36 µM (active)
same,EC50,[1],10.2 µM (inactive)
same,IC50,[12],> 80 µM (inactive)
same,IC50,[18],79.1 µM (active)
same,EC50,[23],> 120 µM (not active)
same,CC50,[24],24.9 µM (active)
same,EC50,[25],> 120 µM (not active)
N#C/C(=C\c1cn[nH]c1-c1ccc(Cl)cc1)C(=O)NCc1ccccc1,AC50,[2],300 µM (active)
same,AC50,[8],12.4 µM (active)
O=C(O)c1ccc(/C=N/Nc2nc3ccccc3[nH]2)cc1,IC50,[3],> 67.6 µM (inactive)
same,IC50,[5],> 67.6 µM (inactive)
COc1ccc(C(=O)/C=C/c2ccc(N(C)C)cc2)c(OC)c1,IC50,[9],4.71 µM (active)
same,IC50,[10],> 49.8 µM (inactive)
CS(=O)(=O)c1ccc([C@@H](O)[C@@H](CF)NC(=O)C(Cl)Cl)cc1 [FLORFENICOL],AC50,[2],3.83 µM (active)
Cc1cc(C)c2c(N)c(C(=O)N/N=C/c3ccccc3)sc2n1,IC50,[3],> 67.5 µM (inactive)
same,IC50,[5],> 67.5 µM (inactive)
CC(=O)NC(Cc1c[nH]c2ccccc12)C(=O)O (centres undefined),IC50,[3],> 67.6 µM (inactive)
same,IC50,[5],> 67.6 µM (inactive)
